Assay results published in EP4772514A1, “MACROCYCLIC COMPOUNDS, PREPARATION METHOD THEREFOR, AND USE THEREOF” (Genfleet Therapeutics (Shanghai) Inc., priority 2023, dated 2025).
Where two headings read alike, the source gives them in different places.

Tests used:
NCI-H441 cells = assay: 3D cell proliferation assay (CellTiter Glo-3D) in NCI-H441 cells; assay type: cell-based; details: NCI-H441, human lung cancer cell strain, KRAS G12V mutation, 3D culture, 2% FBS, 5 days, read-out: H441 AP IC50
Text: MIA PaCa-2 cells were purchased from ATCC, Cat. No. CRL-1420; AsPC-1 cells were purchased from ATCC, Cat. No. CRL-1682; NCI-H441 cells were purchased from ATCC, Cat. No. HTB-174; NCI-H1975 cells were purchased from ATCC, Cat. No. CRL-5908; DMEM medium was purchased from Gibco, Cat. No. 11995-065; RPMI-1640 medium was purchased from Gibco, Cat. No. 11875-093; FBS was purchased from Gibco, Cat. No. 10099-141C; penicillin/streptomycin double-antibiotic solution (PS) was purchased from Gibco, Cat. No. 15140-122; Horse serum was purchased from Gibco, Cat. No. 16050130; trypsin (containing EDTA) was purchased from Gibco, Cat. No. 25200-072; DMSO was purchased from VWRAMRESCO, Cat. No. 0231-500ML; 384-well cell culture plates were purchased from Corning, Cat. No. 3830; white-bottomed, opaque 384-well assay plates were purchased from Corning, Cat. No. 3570; CellTiter Glo-3D kit was purchased from Promega, Cat. No. G9683; cell counter was purchased from CHEMOMETEC, model: NC-200; microplate reader was purchased from PerkinElmer, model: EnVision.
MIA PaCa-2, a human pancreatic cancer cell strain endogenously containing a KRAS^G12Cmutation, was cultured in a complete medium containing DMEM + 10% FBS + 2.5% Horse serum + 1% PS. AsPC-1, a human pancreatic cancer cell strain endogenously containing a KRAS^G12D mutation, was cultured in a complete medium containing RPMI-1640 + 10% FBS + 1% PS. NCI-H441 cells, a human lung cancer cell strain endogenously containing a KRAS^G12V mutation, were cultured in a complete medium containing RPMI-1640 + 10% FBS + 1% PS. NCI-H1975, a KRAS wild-type human lung cancer cell strain whose cell proliferation […], was cultured in a complete medium containing RPMI-1640 + 10% FBS + 1% PS.
The cells were digested with trypsin (containing EDTA), collected in their respective low-serum complete media containing 2% FBS (for MIA Paca-2 cell culture: DMEM + 2% FBS + 0.5% Horse serum + 1% PS), and counted. After the cell density was adjusted as required, MIA PaCa-2 cells (200 cells/well), AsPC-1 cells (800 cells/well), NCI-H441 cells (800 cells/well), or NCI-H1975 cells (400 cells/well) were seeded into a 384-well cell culture plate, with the volume of the medium in each well being 45 µL. The cell culture plate was incubated in an incubator at 37 °C with 5% CO2 overnight. A series of 3.16-fold gradient dilutions of a 1000× compound stock solution were prepared with DMSO, and then diluted 100-fold with the complete medium containing 2% FBS described above to give 10× compound stock solutions. On the day after cell seeding, 5 µL of the 10× compound stock solution was added to each cell culture well. As a result, the final concentration of the compound in the cell culture well became 1×, and the DMSO content in the well was 0.1%. In addition to the compound-treated wells described above, cell-containing DMSO control wells (with 5 µL of the complete medium containing 1% DMSO added to each well) and cell-free medium control wells (containing 50 µL of the complete medium with 2% FBS) were also set. The culture plate was incubated in an incubator at 37 °C with 5% CO2 for another 5 days, and then 30 µL of CellTiter-Glo working solution was added to each well. The mixture was well mixed, incubated for 30 min, left to stand at room temperature for 30 min, and then transferred to a white-bottomed, opaque 384-well assay plate at 40 µL/well. The chemiluminescence values (RLU) were measured using a microplate reader, and the cell proliferation inhibition rate for each well was calculated: IR(%) = (RLUDMSO - RLUcompound)/(RLUDMSO - RLUblank) × 100%, where RLUDMSO is the average RLU signal value from the DMSO control well samples, RLUblank is the average RLU signal value from the medium control well samples, and RLUcompound is the RLU signal value from the compound-treated well samples. […]

p-ERK = assay: Cell p-ERK assay (HTRF, Advance ERK phospho-T202/Y204 kit) in NCI-H441 cells; assay type: cell-based; details: NCI-H441, human non-small cell lung cancer cell strain, KRAS G12V mutation, 3 h compound incubation
Experimental: AsPC-1 cells were purchased from ATCC, Cat. No. CRL-1682; NCI-H441 cells were purchased from ATCC, Cat. No. HTB-174; RPMI-1640 medium was purchased from Gibco, Cat. No. 11875-093; FBS was purchased from Gibco, Cat. No. 10099-141C; penicillin/streptomycin double-antibiotic solution (PS) was purchased from Gibco, Cat. No. 15140-122; trypsin (containing EDTA) was purchased from Gibco, Cat. No. 25200-072; DMSO was purchased from VWRAMRESCO, Cat. No. 0231-500ML; 96-well cell culture plates were purchased from Corning, Cat. No. 3599; white-bottomed, opaque 96-well plates were purchased from Cisbio, Cat. No. 66PL96025; Advance ERK phospho-T202/Y204 kit was purchased from Cisbio, Cat. No. 64AERPEH; cell counter was purchased from CHEMOMETEC, model: NC-200; microplate reader was purchased from PerkinElmer, model: EnVision.
AsPC-1, a human pancreatic cancer cell strain endogenously containing a KRAS^G12D mutation, was cultured in a complete medium containing RPMI-1640 + 10% FBS + 1% PS. NCI-H441, a human non-small cell lung cancer cell strain endogenously containing a KRAS^G12V mutation, was cultured in a complete medium containing RPMI-1640 + 10% FBS + 1% PS.
The cells were digested with trypsin (containing EDTA), collected in their corresponding complete media, and counted. The density of the cell suspensions was adjusted with their corresponding complete media, and AsPC-1 cells (10000 cells/well) or NCI-H441 cells (20000 cells/well) were seeded into a 96-well cell culture plate, with the volume of the medium in each well being 80 µL. The cell culture plate was incubated in an incubator at 37 °C with 5% CO2 overnight. A series of 3.16-fold gradient dilutions of a 1000× compound stock solution were prepared with DMSO, and then diluted 200-fold with the complete medium described above to give 5× compound stock solutions. On the day after cell seeding, 20 µL of the 5× compound stock solution was added to each cell culture well. As a result, the final concentration of the compound in the cell culture well became 1×, and the DMSO content in the well was 0.1%. In addition to the compound-treated wells described above, cell-containing DMSO control wells were also set. A complete medium containing 0.5% DMSO was added at 20 µL/well. After the mixture was well mixed, the culture plate was incubated in the incubator at 37 °C with 5% CO2 for another 3 h. The medium was then removed from the culture wells, and 50 µL of cell lysis buffer (from Advance ERK phospho-T202/Y204 kit) was added to each well. The mixture was well mixed, incubated for 30 min, and then transferred to a white-bottomed, opaque 96-well assay plate at 16 µL/well, and separately, 16 µL of cell lysis buffer was added to additional wells (serving as blank wells) in the assay plate. After the transfer was completed, 4 µL of p-ERK HTRF antibody mixture (from Advance ERK phospho-T202/Y204 kit) was added to each well of the assay plate, followed by a 4-hour incubation. The HTRF signal values (RLU) were then measured using a microplate reader, and the inhibition rate of the compound against p-ERK levels was calculated as follows: IR(%) = (RLUDMSO - RLUcompound)/(RLUDMSO - RLUblank) × 100%, where RLUDMSO is the average HTRF signal value from the DMSO control well samples, RLU is the average HTRF signal value from the blank well samples, and RLUcompound is the HTRF signal value from the compound-treated well samples. Using an XLfit software, the IR(%) values were plotted against the logarithm of the compound concentrations, and the dose-response curves were fitted using the four-parameter method to calculate the IC50 values.

Structure (SMILES)	IC50 (NCI-H441 cells; Homo sapiens, NCI-H441, 120 h)	IC50 (p-ERK; Homo sapiens, NCI-H441, 3 h)	IC50 (NCI-H441 cells; 120 h)	IC50 (p-ERK)
CCn1nc2c(c1-c1cc(C#CCN3CCS(=O)(=O)CC3)cnc1[C@H](C)OC)CC(C)(C)COC(=O)[C@@H]1CCCN(N1)C(=O)[C@@H](NC(=O)[C@@H](OCc1ccccc1)C(C)C)Cc1nc(cs1)/C=C/2 (atropisomer, axis not shown; (Ra)) [Compound Z46, (2S)-2-(benzyloxy)-N-((4^2Z,8^3S,2E,6S)-1^5-(Ra)-(5-(3-(1,1-dioxidothiomorpholino)prop-1-yn-1-yl)-2-((S)-1-methoxyethyl)pyridin-3-yl)-1^1-ethyl-12,12-dimethyl-7,9-dioxo-8^1,8^2,8^3,8^4,8^5,8^6-hexahydro-1^1H-10-oxa-4(4,2)-thiazola-8(1,3)-pyridazina-1(3,4)-pyrrolacyclotridecaphan-2-en-6-yl)-3-methylbutanamide]	0.176 µM	0.168 µM	–	–
CCn1nc2c(c1-c1cc(C#CCN3CCS(=O)(=O)CC3)cnc1[C@H](C)OC)CC(C)(C)COC(=O)[C@@H]1CCCN(N1)C(=O)[C@@H](NC(=O)[C@@H]1CCCN1Cc1ccccc1)Cc1nc(cs1)/C=C/2 (atropisomer, axis not shown; (Ra)) [Compound Z48, (2S)-1-benzyl-N-((4^2Z,8^3S,2E,6S)-(Ra)-1^5-(5-(3-(1,1-dioxothiomorpholine)-1-prop-1-yn-1-yl)-2-((S)-1-methoxyethyl)pyridin-3-yl)-1^1-ethyl-12,12-dimethyl-7,9-dioxo-8^1,8^2,8^3,8^4,8^5,8^6-hexahydro-1^1H-10-oxa-4(4,2)-thiazola-8(1,3)-pyridazina-1(3,4)-pyrrolacyclotridecaphan-2-en-6-yl)pyrrolidine-2-carboxamide]	–	–	0.123 µM	0.0786 µM
CCn1nc2c(c1-c1cc(C#CCN3CCS(=O)(=O)CC3)cnc1[C@H](C)OC)CC(C)(C)COC(=O)[C@@H]1CCCN(N1)C(=O)[C@@H](NC(=O)[C@H](C(C)C)N(C)c1ccccc1)Cc1nc(cs1)/C=C/2 (atropisomer, axis not shown; (Ra)) [Compound Z51, (2S)-N-((4^2Z,8^3S,2E,6S)-(Ra)-1^5-(5-(3-(1,1-dioxidothiomorpholine)prop-1-yn-1-yl)-2-((S)-1-methoxyethyl)pyridin-3-yl)-1^1-ethyl-12,12-dimethyl-7,9-dioxo-8^1,8^2,8^3,8^4,8^5,8^6-hexahydro-1^1H-10-oxa-4(4,2)-thiazola-8(1,3)-pyridazina-1(3,4)-pyrazolecyclotridec-2-en-6-yl)-3-methyl-2-(methyl(phenyl)amino)butanamide]	0.00346 µM	0.00302 µM	–	–
CCn1nc2c(c1-c1cc(C#CCN3CCS(=O)(=O)CC3)cnc1[C@H](C)OC)CC(C)(C)COC(=O)[C@@H]1CCCN(N1)C(=O)[C@@H](NC(=O)[C@@H](NC(=O)OC(C)(C)C)C(C)C)Cc1nc(cs1)/C=C/2 (atropisomer, axis not shown; (Ra)) [Compound Z53]	0.115 µM	0.182 µM	–	–
CCn1nc2c(c1-c1cc(C#CCN3CCS(=O)(=O)CC3)cnc1[C@H](C)OC)CC(C)(C)COC(=O)[C@@H]1CCCN(N1)C(=O)[C@@H](NC(=O)[C@@H](NC)C(C)C)Cc1nc(cs1)/C=C/2 (atropisomer, axis not shown; (Ra)) [Compound Z56, (2S)-N-((4^2Z,8^3S,2E,6S)-1^5-(Ra)-(5-(3-(1,1-dioxidothiomorpholino)prop-1-yn-1-yl)-2-((S)-1-methoxyethyl)pyridin-3-yl)-1^1-ethyl-12,12-dimethyl-7,9-dioxo-8^1,8^2,8^3,8^4,8^5,8^6-hexahydro-1^1H-10-oxa-4(4,2)-thiazola-8(1,3)-pyridazina-1(3,4)-pyrrolacyclotridecaphan-2-en-6-yl)-3-methyl-2-(methylamino)butanamide]	0.196 µM	0.126 µM	–	–
